This note sets out measurements from US8993717B2, “Gadd45beta targeting agents” (Imperial Innovations Limited, priority 2009, dated 2015).

The structures appear in SMILES notation. Where two headings read alike, the source gives them in different places. Square brackets hold non-standard residues; d marks the D form. Peptide text beside a SMILES is read from it. * marks the point of attachment. NHPhenethyl = c1ccc(CCN*)cc1; Cbz = O=C(OCc1ccccc1)*; NHBn = c1ccc(CN*)cc1; Bz = O=C(c1ccccc1)*; NHPh = c1ccc(N*)cc1

The target of one assay is T1, Gadd45β/MKK7 interaction (Homo sapiens, UniProt O14733).
T1 construct: The GST-fused full-length kinase was coated for 16 h at 4° C., at a concentration of 42 nM; made in house
T1 sequence (O14733 1-419): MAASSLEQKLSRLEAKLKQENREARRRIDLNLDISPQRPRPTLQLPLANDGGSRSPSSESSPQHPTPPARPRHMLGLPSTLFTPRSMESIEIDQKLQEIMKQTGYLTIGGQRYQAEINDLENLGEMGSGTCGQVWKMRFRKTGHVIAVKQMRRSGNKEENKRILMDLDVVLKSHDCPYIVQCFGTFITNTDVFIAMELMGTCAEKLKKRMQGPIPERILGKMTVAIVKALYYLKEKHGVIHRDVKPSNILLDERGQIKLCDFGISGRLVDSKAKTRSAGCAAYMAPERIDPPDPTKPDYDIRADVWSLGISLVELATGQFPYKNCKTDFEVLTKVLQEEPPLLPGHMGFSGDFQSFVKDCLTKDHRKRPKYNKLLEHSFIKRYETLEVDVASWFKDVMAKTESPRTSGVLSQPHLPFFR
Description: ELISA competition assay of biotin-hGadd45β binding to coated GST-MKK7. The conditions noted are these: Table V, read-out: IC50 ELISA. How it is done: To evaluate the inhibitory properties of peptides, ELISA-based assays were performed. In these assays, a fusion protein of glutathione S-transferase (GST) and mitogen-activated protein kinase kinase 7 (MKK7) was coated onto wells of a 96-well plate, while biotinylated-hGadd45β was used in solution. hGadd45β was biotinylated using an EZ Link NHS-LC-biotin kit (Pierce, Rockford, Ill.), according to Tornatore et al. (Tornatore L., et al. (2008). J Mol Biol; 378:97-111).
Firstly, the association between Gadd45β and MKK7 was investigated by ELISA assays as also reported in Tornatore et al. (Tornatore L., et al. (2008). J Mol Biol; 378:97-111). The GST-fused full-length kinase was coated for 16 h at 4° C., at a concentration of 42 nM in buffer A (25 mM Tris pH 7.5, 150 mM NaCl, 1 mM DTT and 1 mM EDTA) into wells of a 96-well microliter plate. Some wells were filled with buffer alone and were used as blanks. After incubation for 16 h at 4° C., the solutions were removed and the wells were filled with 350 μL of a 1% (w/v) solution of NFDM (Non Fat Dry Milk) in PBS (phosphate buffered saline). The plate was incubated for 1 h at 37° C. in the dark. After washing with buffer T-PBS (PBS with 0.004% (v/v) Tween detergent), the wells were filled with 100 μL of biotinylated-hGadd45β at concentrations ranging from 8.4 nM to 168 nM. Each data point was performed in triplicate. Following incubation for 1 hr in the dark at 37° C. the solutions were removed and the wells were again washed with T-PBS. Then 100 μL of a 1:10,000 dilution of horseradish peroxidase-conjugated streptavidin dissolved in buffer was added to each well and the plate incubated for 1 hr at 37° C. in the dark. After removal of the enzyme solution and washing, 100 μL of the chromogenic substrate o-phenylendiamine (0.4 mg/mL in 50 mM sodium phosphate-citrate buffer, containing 0.4 mg/mL of urea in hydrogen peroxide) was added and the colour was allowed to develop in the dark for 5 min. The reaction was stopped by adding 50 μL of 2.5 M H2SO4. The absorbance at 490 nm was measured in all wells and the values were averaged after subtracting the corresponding blanks. Bound protein was then detected as described above. The molar concentration of biotinylated-hGadd45β at which the half-maximal ELISA signal is detected corresponds to the dissociation constant (KD) (Friguet B, Chaffotte A F, Djavadi-Ohaniance L, Goldberg M E. J Immunol Methods. 1985 Mar. 18; 77 (2):305-19). Binding competition assays were performed by coating GST-MKK7 at 42 nM as described, a concentration of biotinylated-hGadd45β of 21 nM (pre-saturation conditions 1:0.5 mol/mol ratio) and, in a first test, using competitors at 21 nM. The binding of biotinylated hGadd45β to GST-MKK7 was analyzed in the presence of increasing amounts of competitor peptide (concentrations ranging from 0.01 nM to 100 nM), and the values obtained with the competitor were expressed as the percentage of the binding detected in the absence of competitor. […] According to the convention adopted in the table “L-Xaa” and “D-Xaa” refer to the L and D forms of amino acid Xaa.
A simplified combinatorial peptide library (Marasco et al. 2008, Curr. Protein Pept. Sci. 9:447-67) was screened for antagonists of the Gadd45β/MKK7 interaction. This library contained a total of 12^4=20,736 different tetrapeptides formed by combinations of the following amino acid residues Gln (Q), Ser (S), Arg (R), Ala (A), Tyr (Y), Pro (P), Met (M), Cys (C), Phe (F), Leu (L), His (H), Asp (D), and was iteratively deconvoluted in four steps by ELISA competition assays using at each step coated MKK7 (42 nM), soluble-biotin-hGadd45β (21 nM) and each of the 12 sub-libraries (42 nM).
For orientation: ELISA stands for enzyme-linked immunosorbent assay.

Assay [1] relates to KMS12 multiple myeloma cells. Put plainly: [3H]thymidine incorporation assay in KMS12. Format: cell-based, human. For orientation: Uptake of a labelled nucleoside into DNA is a usual measure of proliferation.
Description: In these latter assays, the effects of Z-DTPs, Ac-DTPs and Z-LTPs on the survival/proliferation of tumour cell lines was investigated by measuring DNA synthesis using standard tritiated thymidine ([^3H]thymidine; [^3H]-TdR) uptake assays. In the analyses shown, cells were incubated for 24, 72, 120 or 144 hrs at 37° C. in the presence or absence of control or bioactive tetrapeptides, as indicated, then subjected to an additional incubation for 18 hrs with [^3H]-TdR (0.037 MBq/well, equivalent to 0.5 μCi/well). Cells were subsequently harvested onto glass fibre filter mats using a 96-well plate automated cell harvester, after which scintillation fluid was added, and [^3H]thymidine incorporation measured by liquid scintillation spectroscopy on a beta counter. The results are expressed as the percentages of the counts per minute (c.p.m.) (directly correlating with the extent of cell proliferation) measured with tetrapeptide-treated cultures relative to the c.p.m. measured with the corresponding cultures incubated with medium alone (untreated cells). All experiments were performed in triplicate.
The test system of assay [2] is KMS11 multiple myeloma cells. Description: [3H]thymidine incorporation assay in KMS11. It counts as cell-based, human. How it is done:
Cultures of multiple myeloma cells and treatments with Z-DTPs were carried out as described in Example 8 (see below). The effects of Z-DTPs on the survival/proliferation of multiple myeloma cells were evaluated by the use of [^3H]thymidine) incorporation assays, performed as also described in Example 8. The amount of cell proliferation measured with each of the Z-DTPs' concentrations used and with the untreated cultures (i.e. cultures incubated with medium alone), was expressed as counts per minute (c.p.m.)—which directly correlate with the extent of cell proliferation. All experiments were performed in triplicate.
In these latter assays, the effects of Z-DTPs, Ac-DTPs and Z-LTPs on the survival/proliferation of tumour cell lines was investigated by measuring DNA synthesis using standard tritiated thymidine ([^3H]thymidine; [^3H]-TdR) uptake assays. In the analyses shown, cells were incubated for 24, 72, 120 or 144 hrs at 37° C. in the presence or absence of control or bioactive tetrapeptides, as indicated, then subjected to an additional incubation for 18 hrs with [^3H]-TdR (0.037 MBq/well, equivalent to […]). Cells were subsequently harvested onto glass fibre filter mats using a 96-well plate automated cell harvester, after which scintillation fluid was added, and [^3H]thymidine incorporation measured by liquid scintillation spectroscopy on a beta counter. The results are expressed as the percentages of the counts per minute (c.p.m.) (directly correlating with the extent of cell proliferation) measured with tetrapeptide-treated cultures relative to the c.p.m. measured with the corresponding cultures incubated with medium alone (untreated cells). All experiments were performed in triplicate.

[3] abbreviates: Day 3, read-out: IC50 [H^3] thymidine incorporation assay in KMS11.
Where [4] appears, read: Day 6, read-out: IC50 [H^3] thymidine incorporation assay in KMS11.
[5] abbreviates: Day 1, read-out: IC50 [H^3] thymidine incorporation assay in KMS11.

For the compound `O=C(O)C[C@@H](NC(=O)c1ccccc1)C(=O)N[C@H](Cc1c[nH]cn1)C(=O)Nc1ccccc1` [Compound 2, X1-Asp-His-Y1] (Bz-[dD]-[dH]-NHPh), the IC50 was above 0.001 µM on Gadd45β/MKK7 interaction (FIG. 3C), above 10 µM in assay [1] and above 10 µM in assay [2].

For `NC(=O)[C@@H](Cc1ccccc1)NC(=O)[C@@H](CC(=O)O)NC(=O)[C@@H](Cc1ccc(O)cc1)NC(=O)OCc1ccccc1` [Compound 8, Z-Tyr-Asp-Phe-NH2] (Cbz-[dY]-[dD]-[dF]-NH2), the figures for the IC50 (on Gadd45β/MKK7 interaction (peptides 0.01-10 nM); in assay [2] (setting [3]); in assay [2] (setting [4])) were 0.000162 µM, above 10 µM and above 10 µM, respectively.

As to `O=C(O)C[C@@H](NC(=O)c1ccc(O)cc1)C(=O)N[C@H](Cc1c[nH]cn1)C(=O)NCc1ccccc1` [Compound 6, X2-Asp-His-Y2], the IC50 in assay [1] and in assay [2] was above 10 µM each time.

With `N=C(N)NCCC[C@@H](NC(=O)[C@@H](CCC(=O)O)NC(=O)c1ccc(O)cc1)C(=O)Nc1ccccc1` [Compound 13, X2-Glu-Arg-Y1], the IC50 in assay [2] was above 10 µM.

For `CC(C)C[C@@H](NC(=O)[C@@H](Cc1ccc(O)cc1)NC(=O)OCc1ccccc1)C(=O)N[C@H](CCCNC(=N)N)C(=O)N[C@H](Cc1ccccc1)C(N)=O` [Z-Tyr-Leu-Arg-Phe-NH2] (Cbz-[dY][dL][dR][dF]-NH2), the IC50 in assay [2] (setting [5]), in assay [2] (setting [3]) and in assay [2] (setting [4]) was above 10 µM each time.

Turning to `N=C(N)NCCC[C@@H](NC(=O)[C@@H](CCC(=O)O)NC(=O)c1ccccc1)C(=O)Nc1ccccc1` [Compound 10, X1-Glu-Arg-Y1] (Bz-[dE]-[dR]-NHPh), the IC50 in assay [2] is above 10 µM.

For `CC(C)C[C@@H](NC(=O)[C@@H](Cc1ccc(O)cc1)NC(=O)OCc1ccccc1)C(=O)N[C@H](Cc1ccccc1)C(N)=O` [Z-Tyr-Leu-Phe-NH2] (Cbz-[dY]-[dL]-[dF]-NH2), the IC50 in assay [2] (setting [5]), in assay [2] (setting [3]) and in assay [2] (setting [4]) was above 10 µM in each case.

As to `NC(=O)CC[C@@H](NC(=O)[C@@H](Cc1ccc(O)cc1)NC(=O)OCc1ccccc1)C(=O)N[C@H](Cc1ccccc1)C(N)=O` [Z-Tyr-Gln-Phe-NH2] (Cbz-[dY]-[dQ]-[dF]-NH2), the IC50 in assay [2] (setting [5]), in assay [2] (setting [3]) and in assay [2] (setting [4]) was above 10 µM each time.

Regarding `O=C(O)C[C@@H](NC(=O)c1ccc(O)cc1)C(=O)N[C@H](Cc1c[nH]cn1)C(=O)Nc1ccccc1` [Compound 5, X2-Asp-His-Y1], the IC50 in assay [1] and in assay [2] was above 10 µM in each case.

`N=C(N)NCCC[C@@H](NC(=O)[C@@H](CCC(=O)O)NC(=O)c1ccc(O)cc1)C(=O)NCc1ccccc1` [Compound 14, X2-Glu-Arg-Y2] came in with an IC50 in assay [2] above 10 µM.

For `CSCC[C@@H](NC(=O)[C@@H](Cc1ccc(O)cc1)NC(=O)OCc1ccccc1)C(=O)N[C@H](Cc1ccccc1)C(N)=O` [Z-Tyr-Met-Phe-NH2] (Cbz-[dY]-[dM]-[dF]-NH2), the IC50 in assay [2] (setting [5]), in assay [2] (setting [3]) and in assay [2] (setting [4]) was above 10 µM throughout.

As to `N=C(N)NCCC[C@@H](NC(=O)[C@@H](CCC(=O)O)NC(=O)c1ccccc1)C(=O)NCCc1ccccc1` [Compound 12, X1-Glu-Arg-Y3] (Bz-[dE]-[dR]-NHPhenethyl), the IC50 in assay [2] is above 10 µM.

With `CSCC[C@@H](NC(=O)[C@@H](Cc1ccc(O)cc1)NC(=O)OCc1ccccc1)C(=O)N[C@H](CCCNC(=N)N)C(=O)N[C@H](Cc1ccccc1)C(N)=O` [Z-Tyr-Met-Arg-Phe-NH2] (Cbz-[dY][dM][dR][dF]-NH2), the IC50 in assay [2] (setting [5]), in assay [2] (setting [3]) and in assay [2] (setting [4]) was above 10 µM throughout.

In assay [2], `N=C(N)NCCC[C@@H](NC(=O)[C@@H](CCC(=O)O)NC(=O)c1ccccc1)C(=O)NCc1ccccc1` [Compound 11, X1-Glu-Arg-Y2] (Bz-[dE]-[dR]-NHBn) showed an IC50 above 10 µM.

As to `O=C(O)C[C@@H](NC(=O)c1ccccc1)C(=O)N[C@H](Cc1c[nH]cn1)C(=O)NCc1ccccc1` [Compound 3, X1-Asp-His-Y2] (Bz-[dD]-[dH]-NHBn), the IC50 is above 0.001 µM on Gadd45β/MKK7 interaction (FIG. 3C), above 10 µM in assay [1] and above 10 µM in assay [2].

Regarding `O=C(O)C[C@@H](NC(=O)c1ccccc1)C(=O)N[C@H](Cc1c[nH]cn1)C(=O)NCCc1ccccc1` [Compound 4, X1-Asp-His-Y3] (Bz-[dD]-[dH]-NHPhenethyl), the IC50 at Gadd45β/MKK7 interaction (peptides 0.01-10 nM) was 0.0005 µM; in assay [1], above 10 µM; in assay [2], above 10 µM.

Take `N=C(N)NCCC[C@@H](NC(=O)[C@@H](CC(N)=O)NC(=O)[C@@H](Cc1ccc(O)cc1)NC(=O)OCc1ccccc1)C(=O)N[C@H](Cc1ccccc1)C(N)=O` [Z-Tyr-Asn-Arg-Phe-NH2] (Cbz-[dY][dN][dR][dF]-NH2): the IC50 in assay [2] (setting [5]), in assay [2] (setting [3]) and in assay [2] (setting [4]) was above 10 µM throughout.
